The source of these data is the Kinase Knowledgebase extract (Sharma et al. 2016).

One test addresses CDK2 (human) (UniProt P24941). As to the kind of experiment: Cell-Based Assay. As to conditions: a2780.
In the case of `CCCCNS(=O)(=O)c1ccc(-n2nc(C(=O)NC)c3c2-c2cn[nH]c2CC3)cc1`, the IC50 worked out at 10.2 µM. This counts as double-digit micromolar. The same measure, in the same setting: the value for `CNS(=O)(=O)c1ccc(-n2nc(C(N)=O)c3c2-c2cn[nH]c2CC3)cc1` was greater than 20 µM. `NC(=O)c1nn(-c2ccc(-c3ncc[nH]3)cc2)c2c1CCc1[nH]ncc1-2` came in with an IC50 greater than 20 µM.

The compound `CCCCNS(=O)(=O)c1ccc(-n2nc(C(=O)NC)c3ccc4[nH]ncc4c32)cc1` displayed an IC50 of 2.9 µM.

Regarding `NC(=O)c1nn(-c2ccc(Cl)cc2)c2c1CCc1[nH]ncc1-2`, the IC50 was greater than 20 µM. With `CC(=O)c1nn(-c2ccc(C)cc2)c2c1C(C)(C)Cc1[nH]ncc1-2`, the IC50 turned out to be 1.65 µM. In other words, the single-digit micromolar range. `C=CCONC(=O)c1nn(-c2ccc(S(=O)(=O)NCCC)cc2)c2c1ccc1[nH]ncc12` returned an IC50 of 8.7 µM. Compared with the last compound, the IC50 is about 5.3-fold higher.

Compound `CN1CCN(S(=O)(=O)c2ccc(-n3nc(C(N)=O)c4ccc5[nH]ncc5c43)cc2)CC1` gave an IC50 greater than 20 µM. Same read-out and setting: as for `NC(=O)c1nn(-c2ccc(-c3ncc[nH]3)cc2)c2c1ccc1[nH]ncc12`, the figure is greater than 20 µM. Same read-out and setting: the value for `NC(=O)c1nn(-c2ccc(OC(F)(F)F)cc2)c2c1CCc1[nH]ncc1-2` was greater than 20 µM; that for `NC(=O)c1nn(Cc2ccccc2)c2c1ccc1[nH]ncc12` was 2.98 µM.

In the case of `CC(=O)c1nn(-c2ccc(C)cc2)c2c1CCc1[nH]ncc1-2`, the IC50 is greater than 20 µM. Regarding `N#Cc1ccc(-n2nc(C(N)=O)c3c2-c2cn[nH]c2CC3)cc1`, the IC50 was greater than 20 µM. With `CS(=O)(=O)c1ccc(-n2nc(C(N)=O)c3c2-c2cn[nH]c2CC3)cc1`, the IC50 is greater than 20 µM.

Compound `NC(=O)c1nn(-c2ccc(C(F)(F)F)cc2)c2c1CCc1[nH]ncc1-2` yielded an IC50 greater than 20 µM. The same measure, in the same setting: the value for `COc1ccc(-n2nc(C(=O)O)c3ccc4[nH]ncc4c32)cc1` was greater than 20 µM. Take `CNS(=O)(=O)c1ccc(-n2nc(C(N)=O)c3ccc4[nH]ncc4c32)cc1`: the IC50 was greater than 20 µM.

The next test concerns the target CDK2 (UniProt P24941). As to the kind of experiment: Enzyme Assay.
Conditions: not given
Compound `CC(=O)c1nn(-c2ccc(C)cc2)c2c1C(C)(C)Cc1[nH]ncc1-2` registered an IC50 of 0.087 µM. This counts as double-digit nanomolar. Still for that read-out and setting: as for `C=CCONC(=O)c1nn(-c2ccc(S(=O)(=O)NCCC)cc2)c2c1ccc1[nH]ncc12`, the figure is 0.2 µM.

As a reminder, the IC50 is the concentration at which inhibition is half-maximal. Read a low IC50 as inhibition by little substance.
